Read-outs that look alike come from different tables or passages of the source.
Assays:
M-NFS-60 cells = assay: Proliferation of M-NFS-60 cells (CTG assay); format: cell-based, mouse; settings: M-NFS-60 (CSF-1 dependent), 3 days
Procedure: (§1) Two syngeneic cell lines M-NFS-60 and RAW264.7 and engineered BaF3 hCSFIR cell line were starved and then tested with CBT-102 and other test articles for 3 days in the temperature of 37° C., 5% CO2 and 95% humidity. The cell viability was then detected using CTG assay. The software of GraphPad Prism was used to calculate IC50.
(§2) CSF-1 dependent mouse myeloid M-NFS-60 cells were employed as target cells while a CSF-1 independent cell line Raw 264.7 was used as a negative control. In addition to CBT-102, the study also included 3 CSF-1R inhibitors: GW2580, BLZ945 and Pexidartinib.

RAW264.7 cells = assay: Proliferation of RAW264.7 cells (CTG assay); format: cell-based; settings: RAW264.7 (CSF-1 independent, negative control), 3 days
Procedure: as §1, §2

BaF3 hCSF1R cell line = assay: Proliferation of engineered BaF3 hCSF1R cell line (CTG assay); format: cell-based
Procedure: as §1, §2

| SMILES | Max inh. (M-NFS-60 cells) [%] | IC50 (M-NFS-60 cells; Mus musculus, 72 h) [nM] | IC50 (RAW264.7 cells; Mus musculus, 72 h) [nM] | Max inh. (RAW264.7 cells) [%] | IC50 (BaF3 hCSF1R cell line; engineered BaF3 hCSF1R, 3 days, CTG, read-out: IC50) [nM] | IC50 (M-NFS-60 cells) [nM] | IC50 (RAW264.7 cells) [nM] | IC50 (BaF3 hCSF1R cell line; Mus musculus, BaF3, 72 h) [nM] |
| --- | --- | --- | --- | --- | --- | --- | --- | --- |
| CNC(=O)c1cc(Oc2ccc3nc(N[C@@H]4CCCC[C@H]4O)sc3c2)ccn1 [BLZ945] | 99.08 | 3020 | > 30000 | 24.65 | – | – | – | – |
| COc1ccc(COc2ccc(Cc3cnc(N)nc3N)cc2OC)cc1 [GW2580] | 99.02 | – | – | 81.91 | 279 | 1140 | 4060 | – |
| Cc1cc2cc(Oc3ccnc(Nc4cccc(CS(=O)(=O)NCCN(C)C)c4)n3)ccc2[nH]1 [sulfatinib] | – | – | – | – | – | – | – | 1330 |
| FC(F)(F)c1ccc(CNc2ccc(Cc3c[nH]c4ncc(Cl)cc34)cn2)cn1 [PLX3397] | 99.32 | 348 | 16400 | 95.16 | – | – | – | – |

Source: patent US20220088016A1, “CANCER TREATMENT USING MULTI-TARGETED KINASE INHIBITOR IN COMBINATION OF PROTEIN KINASE BIOMARKERS” (ZHEJIANG CROWNMAB BIOTECH CO. LTD., priority 2019, published 2022)
